What was measured:
pancreas-α-amylase = biological target: T1, pancreas-α-amylase (Sus scrofa, UniProt P00690); assay: In vitro amylase test; type: biochemical; settings: for α-Amylase Inhibition / α-Amylase Inhibition In Vitro: in vitro; for α-Amylase Inhibition: Table II; for α-Amylase Inhibition In Vitro: Table VI; for amylase inhibiting activity of isolated product: isolated product of the Examples
T1 sequence (P00690 16-511): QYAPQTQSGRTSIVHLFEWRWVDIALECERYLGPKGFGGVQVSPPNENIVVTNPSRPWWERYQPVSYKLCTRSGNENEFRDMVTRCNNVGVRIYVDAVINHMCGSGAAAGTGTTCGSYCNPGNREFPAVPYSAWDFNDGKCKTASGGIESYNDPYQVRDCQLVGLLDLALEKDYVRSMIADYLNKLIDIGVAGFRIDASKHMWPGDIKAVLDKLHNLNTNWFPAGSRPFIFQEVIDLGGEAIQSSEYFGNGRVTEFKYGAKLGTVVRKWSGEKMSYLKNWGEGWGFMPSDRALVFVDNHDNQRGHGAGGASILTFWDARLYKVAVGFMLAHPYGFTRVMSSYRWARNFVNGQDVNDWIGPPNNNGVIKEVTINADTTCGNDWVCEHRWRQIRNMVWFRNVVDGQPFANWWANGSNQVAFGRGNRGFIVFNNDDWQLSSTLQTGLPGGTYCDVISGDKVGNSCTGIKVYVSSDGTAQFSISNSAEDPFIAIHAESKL
Procedure: One amylase inhibitor unit (1 AIU) is defined as the amount of inhibitor which inhibits two amylase units to the extent of 50%. One amylase unit (AU) is the amount of enzyme which under the test conditions specified below splits 1 μequivalent of glucoside bonds in the starch per minute. The μequivalents of split bonds are determined colorimetrically as μequivalents of reducing sugars formed, using dinitrosalicylic acid, and are quoted as μequivalents of maltose equivalents, using a maltose calibration curve. To carry out the test, 0.1 ml of amylase solution (20-22 AU/ml) are mixed with 0-10 μg of inhibitor or 0-20 μl of the solution to be tested in 0.4 ml of 0.02 M sodium glycerophosphate buffer/0.001 M CaCl2, pH 6.9, and the mixture is equilibrated for 10-20 minutes in a water bath at 35° C. The mixture is then incubated for 5 minutes at 35° C with 0.5 ml of a 1% strength starch solution which has been pre-warmed to 35° C (soluble starch No. 1,252 from Merck, Darmstadt), and thereafter 1 ml of dinitrosalicyclic acid reagent (according to P. bernfeld in Colowick-Kaplan, Meth. Enzymol., Volume l, page 149) is added. To develop the color, the batch is heated for 5 minutes on a boiling water bath and then cooled, and 10 ml of distilled water are added. The extinction at 540 nm is measured against a correspondingly made-up blank without amylase. […] The percentage inhibition is plotted as a function of the quotient [formula]

Solubility = type: physicochemical
glucose absorption = assay: Effect on glucose absorption in fasting rats; type: in vivo, rat
Procedure: The produce an alimentary hyperglycemia and hyperinsulinaemia, groups of 6 fasting rats are given (a) 2.5 g of sucrose, (b) 2.5 g of maltose or (c) 1 g of boiled starch orally, in aqueous solution or suspension. Six other rats are given the same carbohydrates in the same amount and a glycoside hydrolase inhibitor in the amount indicated. In addition, six other rats are given an appropriate volume of saline. The blood glucose and the serum insulin are then measured at short intervals of time, in the blood from the retro-orbital venous plexus. Blood glucose determinations are carried out in the Auto-Analyser device (Technicon), according to Hoffmann: J. biol. Chem. 120, 51 (1937), or enzymatically by means of glucose oxidase and o-dianisidine hydrochloride and the serum insulin determinations are carried out according to the method of Hales and Randle: Biochem. J. 88, 137 (1963).

| α-Amylase Inhibition (pancreas-α-amylase) | α-Amylase Inhibition In Vitro (pancreas-α-amylase) | amylase inhibiting activity of isolated product (pancreas-α-amylase) | solubility (Solubility; water, dimethylformamide, dimethylsulfoxide, methanol and hot ethanol) | Compound | Blood Glucose (Mean ± SD) (glucose absorption; glucose + 30 mg, 15 Min.) [mg%] | Blood Glucose (Mean ± SD) (glucose absorption; glucose + 30 mg, 30 Min.) [mg%] | Blood Glucose (Mean ± SD) (glucose absorption; glucose + 30 mg, 45 Min.) [mg%] | Blood Glucose (Mean ± SD) (glucose absorption; glucose + 60 mg, 15 Min.) [mg%] | Blood Glucose (Mean ± SD) (glucose absorption; glucose + 60 mg, 30 Min.) [mg%] | Blood Glucose (Mean ± SD) (glucose absorption; glucose + 60 mg, 45 Min.) [mg%] | water solubility (Solubility) |
| --- | --- | --- | --- | --- | --- | --- | --- | --- | --- | --- | --- |
| 300,000 AIU/g | 300 AIU/mg | 0.3 × 10^6 AIU/g | good solubility | C[C@H]1O[C@H](O[C@H]2[C@H](O)[C@@H](O)C(O)O[C@@H]2CO)[C@H](O)[C@@H](O)[C@@H]1N[C@H]1C=C(CO)[C@@H](O)[C@H](O)[C@H]1O (stereo partly drawn) [Formula IIB, O-{4,6-bisdesoxy-4-[1 S-(1,4,6/5)-4,5,6-trihydroxy-3-hydroxymethylcyclohex-2-en-1-ylamino]-α-D-glucopyranosyl}-(1→4)-D-glucopyranose] | – | – | – | – | – | – | – |
| 1,400,000 AIU/g | 1,400 AIU/mg | 1.4 × 10^6 AIU/g | – | C[C@H]1O[C@H](O[C@H]2[C@H](O)[C@@H](O)[C@@H](O[C@H]3[C@H](O)[C@@H](O)C(O)O[C@@H]3CO)O[C@@H]2CO)[C@H](O)[C@@H](O)[C@@H]1N[C@H]1C=C(CO)[C@@H](O[C@H]2O[C@H](CO)[C@@H](O)[C@H](O)[C@H]2O)[C@H](O)[C@H]1O (stereo partly drawn) [Formula V, O-{4,6-bisdesoxy-4-[1 S-(1,4,6/5)-4,5,6-trihydroxy-3-hydroxymethyl-4-O-α-D-glucopyranosyl-(1→4)-cyclohex-2-en-1-ylamino]-α-D-glycopyranosyl}-(1→4)-O-α-D-glucopyranosyl-(1→4)-D-glucopyranose] | – | – | – | – | – | – | – |

| Compound | α-Amylase Inhibition (pancreas-α-amylase) | α-Amylase Inhibition In Vitro (pancreas-α-amylase) | amylase inhibiting activity of isolated product (pancreas-α-amylase) | solubility (Solubility; water, dimethylformamide, dimethylsulfoxide, methanol and hot ethanol) | Blood Glucose (Mean ± SD) (glucose absorption; glucose + 30 mg, 15 Min.) [mg%] | Blood Glucose (Mean ± SD) (glucose absorption; glucose + 30 mg, 30 Min.) [mg%] | Blood Glucose (Mean ± SD) (glucose absorption; glucose + 30 mg, 45 Min.) [mg%] | Blood Glucose (Mean ± SD) (glucose absorption; glucose + 60 mg, 15 Min.) [mg%] | Blood Glucose (Mean ± SD) (glucose absorption; glucose + 60 mg, 30 Min.) [mg%] | Blood Glucose (Mean ± SD) (glucose absorption; glucose + 60 mg, 45 Min.) [mg%] | water solubility (Solubility) |
| --- | --- | --- | --- | --- | --- | --- | --- | --- | --- | --- | --- |
| C[C@H]1O[C@H](O[C@H]2[C@H](O)[C@@H](O)[C@@H](O[C@H]3[C@H](O)[C@@H](O)C(O)O[C@@H]3CO)O[C@@H]2CO)[C@H](O)[C@@H](O)[C@@H]1N[C@H]1C=C(CO)[C@@H](O)[C@H](O)[C@H]1O (stereo partly drawn) [Formula IIIB, O-{4,6-bisdesoxy-4-[1 S-(1,4,6/5)-4,5,6-trihydroxy-3-hydroxymethylcyclohex-2-en-1-ylamino]-α-D-glucopyranosyl}-(1→4)-O-α-D-glucopyranosyl-(1→4)-D-glucopyranose] | 300,000 AIU/g | 300 AIU/mg | 0.3 × 10^6 AIU/g | – | 135 ± 13 | 128 ± 5.5 | 132 ± 7.3 | 125 ± 13 | 118 ± 2.9 | 130 ± 9.0 | readily water-soluble |
